Experimental data from US20250249026A1 (priority 2019, published 2025).
Several values for one entry are separate records, joined by “and”; a condition that tells them apart may be missing. Equal entries are not always repeated. Entries after “also recorded” stand apart in the source; their conditions may differ.

Columns and labels:
[1] = system: iNOS; test: Expression of iNOS in macrophages induced by LPS (Embodiment 8); type: cell-based, Mouse; conditions: 10 μmol/L, LPS 0.1 μg/mL, 24 h, ELISA, FIG. 6
Experimental: 1. Cell line: Macrophage RAW264.7.
2. Reagents: LPS (Sigma); iNOS detection kit (Stressgen); MTT (Biotopped).
The level of iNOS protein in macrophages was determined by ELISA using an anti-human iNOS polyclonal antibody (Stressgen). The number of macrophages was determined by using an automatic flow cytometer.

[2] = Removing peroxynitrite, SIN-1 as donor (Embodiment 9); type: biochemical; conditions: SIN-1 1 μmol/L, 1, 10, 100 μmol/L, 302 nm, FIG. 7
Experimental: 3-morpholino-sydnonimine (SIN-1) as a peroxynitrite donor was added to 15 test tubes at a concentration of 1 μmol/L. 5-methyltetrahydrofolate calcium was added to test tubes containing the SIN-1 solution to the final concentrations of 1 μmol/L, 10 μmol/L, and 100 μmol/L respectively; dehydroascorbic acid was added to test tubes containing the SIN-1 solution to the final concentrations of 1 μmol/L, 10 μmol/L, and 100 μmol/L respectively; glutathione was added to test tubes containing the SIN-1 solution to the final concentrations of 1 μmol/L, 10 μmol/L, and 100 μmol/L respectively; NMN was added to test tubes containing the SIN-1 solution to the final concentrations of 1 μmol/L, 10 μmol/L, and 100 μmol/L respectively; and tetrahydrobiopterin was added to test tubes containing the SIN-1 solution to the final concentrations of 1 μmol/L, 10 μmol/L, and 100 μmol/L respectively. The concentration of peroxynitrite was determined by spectrophotometry at a detection wavelength of 302 nm.

[3] = system: Macrophage RAW264.7; test: NO secretion of macrophage RAW264.7 (Embodiment 12); type: cell-based, Mouse; conditions: for Lysate NO secretion amount / Supernatant NO secretion amount: Folate 15.625 μM, LPS group 1 μg/mL, mean, n = 6
Experimental: • 1. Cell line: Macrophage RAW264.7. • 2. […] II. Experimental scheme
An absorbance value at 520 nm was expressed as mean±standard deviation. NO secretion rate=(OD sample well-OD blank well)/(OD normal well-OD blank well)×100%, and the NO secretion amount was calculated according to a standard curve.

[4] = system: influenza; type: in vivo, human
[5] = system: Macrophage RAW264.7; conditions: 15.625, 62.5, 250 μmol/L; FIGS. 10-12
[6] = system: Pseudomonas aeruginosa; test: Gram-negative bacteria in vivo (Embodiment 18); parameters: species or system BAL B/C male mice; conditions: penicillin 450 mg/kg by gavage 30 min and 24 h after infection
Experimental: […] BAL B/C male mice weighing 18-22 g were divided into 6 groups with 8 mice in each group. […] After a bacterial solution of Pseudomonas aeruginosa was cultured by streaking on an LB solid medium, a typical colony was picked and inoculated into an ordinary LB liquid medium. After overnight shaking culture at 37° C. for about 12 h, the culture was centrifuged at 4000 r/min for 3 min, the supernatant was discarded, and the bacteria were resuspended in normal saline for later use. The BAL B/C male mice in each experimental group and three control groups were intraperitoneally injected with a fatal dose of Pseudomonas aeruginosa solution at a dose of 500 μL/mouse. 30 min after the BAL B/C male mice in the experimental groups were infected with the bacteria, the medium-dose composition group and the high-dose composition group were administered with drugs by gavage, the penicillin group and the meropenem group were also administered with drugs by gavage, and the normal group was administered with purified water by gavage. 24 h after administration, the BAL B/C male mice in each experimental group and control group were administered for the second time, and the drug type and dosage were the same as the administration for the first time. The BAL B/C male mice were observed every 24 h after administration, and their survival was recorded. All animals were sacrificed on the day 15.

[7] = randomized controlled trial / meta analyses from the literature; cited from earlier work
[8] = system: Mycoplasma pneumoniae (ATCCFH15531); test: In vivo anti-mycoplasma pneumonia experiment (Embodiment 21); conditions: azithromycin 40 mg/kg; composition C 40 and 80 mg/kg; 10 days
[9] = Folate capsules 400 mg/capsule, per patient, row Mean = mean
[10] = listed as 5-methyltetrahydrofolic acid

Molecule: NC(=O)c1ccc[n+]([C@@H]2O[C@H](COP(=O)([O-])O)[C@@H](O)[C@H]2O)c1 [NMN, nicotinamide mononucleotide]
- effect on expression of iNOS in macrophages induced by LPS [1]: did not affect; also recorded: almost no effect
- peroxynitrite scavenging [2]: excellent peroxynitrite scavenging effects; also recorded: higher ability to scavenge peroxynitrite

Molecule: 6S-5-methyltetrahydrofolate calcium
- Lysate NO secretion amount ([3]; 1 μg/mL LPS induction): 1.725 µM
- Supernatant NO secretion amount ([3]; 1 μg/mL LPS induction): 36.814 µM
- effect on secretion/expression of NO in macrophages ([3]; 15.625 μmol/L, macrophages induced by LPS, listed as 5-methyltetrahydrofolic acid): did not inhibit; also recorded: hardly affects
- Lysate NO secretion amount ([3]; No induction): 3.863 µM
- Supernatant NO secretion amount ([3]; No induction): 1.714 µM
- effect on secretion of NO when no LPS stimulation is provided ([3]; low concentration, no LPS): promote the secretion of NO
- Basic rehabilitation (symptoms other than tonsillitis and sore throat disappeared) [4, 9]: 33 hours (2×) and 35 hours and 13 hours and 12 hours (2×) and 17 hours (2×) and 32 hours (3×) and 8 hours and 43 hours and 18 hours and 34 hours and 15 hours and 11 hours and 56 hours and 24 hours and 10 hours and 46 hours and 58 hours and 53 hours and 14 hours
- Complete rehabilitation (all symptoms disappeared) [4, 9]: 33 hours (2×) and 35 hours and 13 hours (3×) and 12 hours and 17 hours (2×) and 32 hours (2×) and 8 hours and 43 hours and 36 hours (2×) and 48 hours and 56 hours and 46 hours (3×) and 44 hours and 58 hours (2×) and 14 hours
- disappearance time of symptoms: Cough [4, 9]: 33 hours (2×) and 17 hours and 29 hours and 46 hours (2×) and 44 hours and 13 hours and 58 hours
- disappearance time of symptoms: Dizziness and fullness in head [4, 9]: 48 h and 9 h
- disappearance time of symptoms: Dry and itchy throat [4, 9]: 15 h
- disappearance time of symptoms: Fatigue [4, 9]: 35 hours and 8 hours (3×) and 12 hours (3×) and 15 hours and 10 hours (4×) and 33 hours
- disappearance time of symptoms: Headache [4, 9]: 13 hours and 12 hours (4×) and 32 hours (2×) and 8 hours (3×) and 9 hours and 10 hours (2×) and 14 hours
- disappearance time of symptoms: Inappetence [4, 9]: 13 h
- disappearance time of symptoms: Intolerance of cold and cold limbs [4, 9]: 10 h
- disappearance time of symptoms: Low fever [4, 9]: 10 h
- disappearance time of symptoms: Muscular soreness [4, 9]: 16 hours and 13 hours and 32 hours and 9 hours and 15 hours and 10 hours (2×) and 14 hours
- disappearance time of symptoms: Nasal stuffiness [4, 9]: 9 hours and 17 hours and 32 hours (2×) and 8 hours and 43 hours and 12 hours (3×) and 20 hours and 15 hours (2×) and 56 hours and 33 hours and 24 hours and 10 hours and 41 hours
- disappearance time of symptoms: Running nose [4, 9]: 11 hours (2×) and 13 hours and 32 hours and 8 hours and 9 hours and 20 hours and 15 hours and 12 hours (3×) and 33 hours (2×) and 46 hours and 53 hours and 17 hours and 14 hours
- disappearance time of symptoms: Sneezing [4, 9]: 32 hours (2×) and 9 hours (2×) and 18 hours and 34 hours and 15 hours and 12 hours (3×) and 8 hours and 33 hours and 10 hours and 17 hours
- disappearance time of symptoms: Sore throat [4, 9]: 33 hours (2×) and 12 hours (2×) and 32 hours (3×) and 29 hours and 36 hours (2×) and 46 hours and 10 hours and 54 hours and 58 hours and 14 hours
- time until the patients' influenza almost all healed ([4]; data in both Table 1 and Table 2): ≤ 2 days
- effect on expression of iNOS in macrophages induced by LPS [1, 10]: did not affect; also recorded: almost no effect
- effect on expression of macrophages and inflammatory factors induced by LPS [5]: no significant effect
- peroxynitrite scavenging [2, 10]: excellent peroxynitrite scavenging effects; also recorded: higher ability to scavenge peroxynitrite

Molecule: N[C@@H](CCC(=O)N[C@@H](CS)C(=O)NCC(=O)O)C(=O)O [glutathione, reference compound]
- effect on expression of iNOS in macrophages induced by LPS [1]: did not affect; also recorded: almost no effect

Molecule: O=C1O[C@H]([C@@H](O)CO)C(=O)C1=O [dehydroascorbic acid]
- effect on expression of iNOS in macrophages induced by LPS [1]: almost no effect
- peroxynitrite scavenging [2]: excellent peroxynitrite scavenging effects; also recorded: higher ability to scavenge peroxynitrite

Molecule: lipopolysaccharide [LPS, reference compound]
- Lysate NO secretion amount ([3]; 1 μg/mL LPS induction): 1.6 µM
- Supernatant NO secretion amount ([3]; 1 μg/mL LPS induction): 37.343 µM
- Lysate NO secretion amount ([3]; No induction): 1.95 µM
- Supernatant NO secretion amount ([3]; No induction): 42.714 µM

Molecule: penicillin
- outcome of mice infected with the fatal dose of Pseudomonas aeruginosa [6]: all the mice in the penicillin group died

Molecule: O=C1O[C@H]([C@@H](O)CO)C(O)=C1O [vitamin C]
- mortality of patients with sepsis [7]: cannot improve

Molecule: CC[C@H]1OC(=O)[C@H](C)[C@@H](O[C@H]2C[C@@](C)(OC)[C@@H](O)[C@H](C)O2)[C@H](C)[C@@H](O[C@@H]2O[C@H](C)C[C@H](N(C)C)[C@H]2O)[C@](C)(O)C[C@@H](C)CN(C)[C@H](C)[C@@H](O)[C@]1(C)O [azithromycin]
- histopathological examination of the lung tissue [8]: Mild interstitial pneumonia

Molecule: C[C@]12CCC(=O)C=C1CC[C@@H]1[C@@H]2[C@@H](O)C[C@@]2(C)[C@H]1CC[C@]2(O)C(=O)CO [hydrocortisone]
- mortality of patients with sepsis [7]: could not reduce
